Like-named read-outs stand apart in the source and are kept apart here.
Key:
IL-1β = assay: Human PBMC Cytokine Assay: IL-1β; format: cell-based; conditions: LPS stimulation, 24 hours
Method: (§1) Human PBMC were freshly isolated from whole blood collections of 3 normal donors utilizing density gradient centrifugation followed by red blood cell lysis. PBMC from each donor were assayed separately. Cells were suspended in RPMI 1640 media supplemented with 5% fetal bovine serum, 2 mM L-glutamine, 10 mM HEPES, and 1× penicillin/streptomycin. PBMC were seeded at 200,000 cells/well in 96-well round-bottom plates either without stimulation or with stimulation by lipopolysaccharide (LPS, 1 μg/mL) or antibodies against human CD3 (plate-bound, 2 μg/mL) and human CD28 (soluble, 2 μg/mL). Serial dilutions of compound in DMSO/media were simultaneously added and PBMC were incubated at 37° C., 5% CO2 for 24 hours. After 24 hours, plates were centrifuged and half of the supernatant volume removed for cytokine analysis by electrochemiluminescent immunoassay (U-PLEX® Biomarker Multiplex, Meso Scale Discovery). For viability analysis, CellTiter-Glo® (Promega) was added to the remaining material in each well and quantified via luminescent plate reader.

IL-23 = assay: Human PBMC Cytokine Assay: IL-23; format: cell-based; conditions: LPS stimulation, 24 hours
Method: as §1

IL-6 = assay: Human PBMC Cytokine Assay: IL-6; format: cell-based; conditions: LPS stimulation, 24 hours
Method: as §1

GM-CSF = assay: Human PBMC Cytokine Assay: GM-CSF; format: cell-based; conditions: anti-CD3/CD28 stimulation, 24 hours
Method: as §1

TNFα = assay: Human PBMC Cytokine Assay: TNFα; format: cell-based; conditions: anti-CD3/CD28 stimulation, 24 hours
Method: as §1

[1] = system: full length IL-2 (amino acids 1-153) fused to Gaussia Luciferase; assay: Dox Induced IL2-FL-Gluc Assay; format: cell-based; conditions: 24 hr, read-out: 24 hr Dox Inducible IL2FLGluc 293FRT/TO: Mean IC50
Procedure, shortened: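 Compounds in DMSO/media with doxycycline were added to cells plated the previous day and incubated at 37° C, 5% CO2. Cells: stable Flp-In 293 T-REx line, Dox-regulated expression of IL-2 (aa 1-153) fused at its C-terminus to Gaussia luciferase.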

[2] = system: multiple myeloma cell line NCl-H929; assay: H929 Cell Viability Assay; format: cell-based, human; conditions: Homo sapiens, NCI-H929, 48 h
Procedure, shortened: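 Viability was determined by CellTiter-Glo luminescence after a 48 h, 37 °C exposure of NCI-H929 cells to serial compound dilutions in medium containing 10% FBS. Where stereochemistry is not shown, values refer to a mix of stereoisomers.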

[3] = In Vitro Microsome Stability Assay (human); format: in vitro ADME
Procedure, shortened: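 Test article, added from a 0.25 mM DMSO stock, was incubated with liver microsomes (20 mg/mL stock) in 0.1 M potassium phosphate at 37° C, with the reaction started by NADPH. Samples were quenched with acetonitrile containing internal standard at 0 and 30 min and analysed by LC-MS/MS. Values are % remaining at 30 min versus 0 min, using IS-normalised AUC ratios.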

Human PBMC = Human PBMC CellTiter-Glo viability; format: cell-based; conditions: no stimulation, 24 hours
Method: as §1

[4] = system: full length TNFα (amino acids 1-233) fused to Gaussia Luciferase; assay: Dox Induced TNFα-FL-Gluc Assay; format: cell-based; conditions: 24 hr, read-out: 24 hr Dox Inducible TNFaFLGluc 293FRT/TO: Mean IC50
Procedure, shortened: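 Compounds diluted in DMSO/medium with doxycycline were incubated at 37° C, 5% CO2 with 293 T-REx cells stably carrying a Tet-regulated TNFα(1-233)-Gaussia luciferase construct. Data for structures drawn without stereochemistry refer to stereoisomer mixtures.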

[5] = system: HER3 signal sequence plus 4 amino acids fused to Gaussia Luciferase (HER3-ss+4aa/Gaussia Luciferase); assay: Dox Induced HER3-ss-Gluc Assay; format: cell-based; conditions: 24 hr, doxycycline induced, Flp-In 293 T-REx cells; read-out: 24 hr Dox Inducible Her3(ss + 4) Gluc 293FRT/TO: Mean 1050
Procedure, shortened: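 Stable Flp-In 293 T-REx line expressing HER3 signal sequence+4aa/Gaussia luciferase under doxycycline-inducible control. Cells plated the day before; compound dilutions added in doxycycline-containing medium and incubated at 37° C, 5% CO2.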

[6] = human liver microsomes, 30 min w/ NADPH

For `C[C@H]1CN(S(=O)(=O)c2ccc(N(C)C)cc2)CCCN(CC2CCCCC2)CCCN(S(=O)(=O)N2CCc3cc(Cl)ccc3C2)C1` [A87], the IC50 (IL-1β) was over 25000 nM, the IC50 (IL-23) was 200 nM and the IC50 (IL-6) was 61 nM. The IC50 (GM-CSF) was 165 nM, the IC50 (TNFα) was 82 nM and the IC50 ([1]; 293FRT/TO) was 50.2 nM. For the same compound, the EC50 ([2]; H929, read-out: 48 hr H929 Viability Celltiter-Glo: Mean EC50) was 224 nM, the “Liver Microsome Stability-% Left after 30 min w/ NADPH (%) Human” value (“Liver Microsome Stability-% Left” below) ([3]; human, 30 min, NADPH) was 39.7% and the IC50 (Human PBMC) was over 25000 nM. For the same compound, the IC50 ([4]; 293FRT/TO) was 492 nM.
`COc1cc(F)ccc1N1CCN(S(=O)(=O)N2CCCN(CC3CCCCC3)CCCN(S(=O)(=O)c3ccc(N(C)C)cc3)C[C@H](C)C2)CC1` [A137] gave an IC50 [5] of 10.8 nM, an IC50 (IL-1β) of over 25000 nM and an IC50 (IL-23) of 79 nM. For the same compound, the IC50 (IL-6) was 12 nM, the IC50 (GM-CSF) was 25 nM and the IC50 (TNFα) was 17 nM. The IC50 ([1]; Dox inducible, 293FRT/TO cells) was 21.4 nM, the EC50 ([2]; H929, Celltiter-Glo) was 282 nM and the “Liver Microsome Stability-% Left” value [3, 6] was 48.8%. It also gave an IC50 (Human PBMC) of over 25000 nM and an IC50 ([4]; Dox inducible, 293FRT/TO cells) of 191 nM.
`C[C@H]1CN(S(=O)(=O)c2ccc(N(C)C)cc2)CCCN(CC2CCCCC2)CCCN(S(=O)(=O)N2CCc3c(C#N)cccc3C2)C1` [A151, 2-{[(3S)-9-(cyclohexylmethyl)-5-[4-(dimethylamino)benzenesulfonyl]-3-methyl-1,5,9-triazacyclododecan-1-yl]sulfonyl}-1,2,3,4-tetrahydroisoquinoline-5-carbonitrile] showed an IC50 [5] of 276 nM, an IC50 ([1]; Dox inducible, 293FRT/TO cells) of 306 nM and an EC50 ([2]; H929, Celltiter-Glo) of 2710 nM. For the same compound, the “Liver Microsome Stability-% Left” value [3, 6] was 4.28% and the IC50 ([4]; Dox inducible, 293FRT/TO cells) was 1220 nM.
`COc1cc(F)ccc1N1CCN(S(=O)(=O)N2CCCN(CC3CCCCC3)CCCN(S(=O)(=O)c3ccc(N(C)C)cc3)C[C@H](C)C2)C[C@H]1C` [A177, 4-{[(3S)-9-(cyclohexylmethyl)-5-{[(3 R)-4-(4-fluoro-2-methoxyphenyl)-3-methylpiperazin-1-yl]sulfonyl}-3-methyl-1,5,9-triazacyclododecan-1-yl]sulfonyl}-N,N-dimethylaniline] gave an IC50 [5] of 10.9 nM, an IC50 (IL-1β) of over 25000 nM and an IC50 (IL-23) of 54 nM. The IC50 (IL-6) was 24 nM, the IC50 (GM-CSF) was 19 nM and the IC50 (TNFα) was 13 nM. For the same compound, the IC50 ([1]; Dox inducible, 293FRT/TO cells) was 12.6 nM, the EC50 ([2]; H929, Celltiter-Glo) was 180 nM and the “Liver Microsome Stability-% Left” value [3, 6] was 13.7%. The IC50 (Human PBMC) was over 25000 nM and the IC50 ([4]; Dox inducible, 293FRT/TO cells) was 155 nM.
